Data on two compounds can be found in US20090082400A1, “SOLUBLE PYRONE ANALOGS METHODS AND COMPOSITIONS” (priority 2007, published 2009).

The conditions of series [1]: in vivo; cited from earlier work.
The conditions of series [2]: Zheng, et al. J. Pharm. Sci. 94(5), 2005; cited from earlier work.
A short description of series [3]: Sulfobutylether-7-β-cyclodextrin-quercetin aqueous composition: concentration and storage stability. Type of series: physicochemical. The following applies: quercetin at 10 mg/ml in water with sulfobutylether-7-β-cyclodextrin. As to the method:
The flask is placed in an ice bath. […] Into the flask, 12 ml of 1 N sodium hydroxide is added over about 5 to 10 minutes. […] Into the flask is then added 10.5 ml of hydrochloric acid over 5 to 10 minutes at a slow enough rate to avoid precipitation. During the addition of the sodium hydroxide and the hydrochloric acid, the temperature is maintained at less than 20° C. DI water is then added to give total volume of 100 ml.

Series [4] can be described thus: Fisetin-sulfobutylether-7-β-cyclodextrin solution: concentration and precipitation. The series is classed as physicochemical. The following applies: approximately 1:2.5 molar ratio of fisetin to Captisol; pH 7.8-7.9. As to the method: Captisol™ (17.9 g) is dissolved in 55 ml of distilled (or deionized) water. Fisetin (anhydrous) (965 mg) is then added to the above solution. The mixture is stirred vigorously followed by sonication if necessary to break up any clumps so that a homogeneous suspension is obtained.
While stirring vigorously, a 1 N NaOH solution (12.0 ml) is added slowly and for the formation of the fisetin-Captisol inclusion complex. The resulting solution will be at about pH 12.5 and may have an orange-brown color. The solution is not kept long at this pH, and is quickly neutralized in the following step.
While stirring, add 1N HCl solution (9 ml) dropwise to attain pH to 7.8-7.9. The final solution may be light-yellow to light orange in color. In some cases, the pH can be brought to below pH 7.8. […] Add water to a final volume of 100 ml.
This solution will contain approximately a 1:2.5 molar ratio of fisetin to Captisol. This procedure is for preparing an approximately 9.47 mg/ml fisetin solution. In some cases, the solution can be further diluted to make a solution for injection or for oral administration, for example, by diluting with either 0.9% saline solution and/or with a solution containing dextrose.

SMILES strings stand for the structures. “Also recorded” adds a separate entry of the source.

Regarding `O=c1c(O)c(-c2ccc(O)c(O)c2)oc2cc(O)cc(O)c12` [quercetin], the serum half-life in series [1] is 19 to 25 h. Also, in series [2], the “stability in aqueous solution as a function of pH” value is reported as “stable below pH 3; also recorded: degradation of quercetin above pH 5 became apparent”. Besides, in series [3], the stability without precipitation result was “stable for more than two weeks without precipitation”.
As to `O=c1c(O)c(-c2ccc(O)c(O)c2)oc2cc(O)ccc12` [fisetin], the “fisetin concentration of the solution” value in series [4] is listed as “approximately 9.47 mg/ml”.
